SMILES strings stand for the structures. pEC50: −log10 of the molar value.

The values that follow come from patent US8822444B2, “Hepatitis C virus inhibitors” (Bristol-Myers Squibb Company, priority 2009, dated 2014).

The subject of one assay is HCV 1b genotype. The experiment in a line: HCV Replicon assay. The conditions noted are these: HCV 1b genotype replicon; read-out: 1b EC50 Range. The class given is cell-based. On the procedure:
An HCV Replicon assay was utilized in the present disclosure, and was prepared, conducted and validated as described in commonly owned PCT/US2006/022197 and in O'Boyle et. al. Antimicrob Agents Chemother. 2005 April; 49(4):1346-53. Assay methods incorporating luciferase reporters have also been used as described (Apath.com).
HCV-neo replicon cells and replicon cells containing mutations in the NS5A region were used to test the currently described family of compounds. The compounds were determined to have more than 10-fold less inhibitory activity on cells containing mutations than wild-type cells. Thus, the compounds of the present disclosure can be effective in inhibiting the function of the HCV NS5A protein and are understood to be as effective in combinations as previously described in application PCT/US2006/022197 and commonly owned WO/04014852. Further, the compounds of the present disclosure can be effective against the HCV 1b genotype. It should also be understood that the compounds of the present disclosure can inhibit multiple genotypes of HCV. […] In one embodiment, compounds of the present disclosure are inhibitory versus 1a, 1b, 2a, 2b, 3a, 4a, and 5a genotypes.
With `COC(=O)N[C@@H](C)C(=O)N1CCC[C@H]1c1nc(C2=CCC(C3CC=C(c4c[nH]c([C@@H]5CCCN5C(=O)[C@H](C)NC(=O)OC)n4)CC3)CC2)c[nH]1` (stereo partly drawn) [QC-2, methyl ((1S)-2-((2S)-2-(4-(4′-(2-((2S)-1-(N-(methoxycarbonyl)-L-alanyl)-2-pyrrolidinyl)-1H-imidazol-4-yl)-1,1′-bi(3-cyclohexen-1-yl)-4-yl)-1H-imidazol-2-yl)-1-pyrrolidinyl)-1-methyl-2-oxoethyl)carbamate], the pEC50 – broadly, −log10 of the EC50, conventionally taken in molar units – is 7.00 to 8.34.

On to `CCN(CC)[C@@H](C(=O)N1CCC[C@H]1c1nc(C2=CCC(C3CC=C(c4c[nH]c([C@@H]5CCCN5C(=O)[C@@H](c5ccccc5)N(CC)CC)n4)CC3)CC2)c[nH]1)c1ccccc1` (stereo partly drawn) [QC-3, (1R,1′R)-2,2′-(1,1′-bi(3-cyclohexen-1-yl)-4,4′-diylbis(1H-imidazole-4,2-diyl(2S)-2,1-pyrrolidinediyl))bis(N,N-diethyl-2-oxo-1-phenylethanamine)], for which the pEC50 was 8.34 to 8.70.

Regarding `COC[C@H](NC(=O)OC)C(=O)N1CCC[C@H]1c1nc(C2=CCC(C3CC=C(c4c[nH]c([C@@H]5CCCN5C(=O)[C@H](COC)NC(=O)OC)n4)CC3)CC2)c[nH]1` (stereo partly drawn) [QC-4, methyl ((1S)-2-((2S)-2-(4-(4′-(2-((2S)-1-(N-(methoxycarbonyl)-O-methyl-L-seryl)-2-pyrrolidinyl)-1H-imidazol-4-yl)-1,1′-bi(3-cyclohexen-1-yl)-4-yl)-1H-imidazol-2-yl)-1-pyrrolidinyl)-1-(methoxymethyl)-2-oxoethyl)carbamate], the negative-log EC50 (pEC50) was 7.00 to 8.34.

On to `COC(=O)N[C@H](C(=O)N1CCC[C@H]1c1nc(C2=CCC(C3CC=C(c4c[nH]c([C@@H]5CCCN5C(=O)[C@@H](NC(=O)OC)[C@@H](C)OC)n4)CC3)CC2)c[nH]1)[C@@H](C)OC` (stereo partly drawn) [QC-5, methyl ((1S,2R)-2-methoxy-1-(((2S)-2-(4-(4′-(2-((2S)-1-(N-(methoxycarbonyl)-O-methyl-L-threonyl)-2-pyrrolidinyl)-1H-imidazol-4-yl)-1,1′-bi(3-cyclohexen-1-yl)-4-yl)-1H-imidazol-2-yl)-1-pyrrolidinyl)carbonyl)propyl)carbamate], for which the negative logarithm of the EC50 (pEC50) is 8.34 to 8.70.

Still in this assay, the particulars now being: Hepatitis C virus; HCV 1b genotype replicon; read-out: 1b EC50 (in nM or range).
Regarding `COC(=O)N[C@H](C(=O)N1CCC[C@H]1c1nc(C2=CCC(c3ccc(-c4c[nH]c([C@@H]5CCCN5C(=O)[C@@H](NC(=O)OC)C(C)C)n4)cc3)CC2)c[nH]1)C(C)C` (mixture of isomers) [QC-9, methyl ((1S)-1-(((2S)-2-(4-(4-(4-(2-((2S)-1-((2S)-2-((methoxycarbonyl)amino)-3-methylbutanoyl)-2-pyrrolidinyl)-1H-imidazol-4-yl)phenyl)-1-cyclohexen-1-yl)-1H-imidazol-2-yl)-1-pyrrolidinyl)carbonyl)-2-methylpropyl)carbamate], the half-maximal effective concentration (EC50) (usually the concentration at which the effect is half-maximal) turned out to be 0.011 nM.

Consider `COC(=O)N[C@H](C(=O)N1CCC[C@H]1c1nc(-c2ccc(C34CCC(c5c[nH]c([C@@H]6CCCN6C(=O)[C@@H](NC(=O)OC)C(C)C)n5)(CC3)CC4)cc2)c[nH]1)C(C)C` [Example M-1, methyl ((1S)-1-(((2S)-2-(4-(4-(4-(2-((2S)-1-((2S)-2-((methoxycarbonyl)amino)-3-methylbutanoyl)-2-pyrrolidinyl)-1H-imidazol-4-yl)phenyl)bicyclo[2.2.2]oct-1-yl)-1H-imidazol-2-yl)-1-pyrrolidinyl)carbonyl)-2-methylpropyl)carbamate], for which the EC50 was 0.009 nM.

As for `COC[C@H](NC(=O)OC)C(=O)N1CCC[C@H]1c1nc(C2CCC(C3CCC(c4c[nH]c([C@@H]5CCCN5C(=O)[C@H](COC)NC(=O)OC)n4)CC3)CC2)c[nH]1` (stereo partly drawn) [QC-7, methyl ((1S)-2-((2S)-2-(4-(4′-(2-((2S)-1-(N-(methoxycarbonyl)-O-methyl-L-seryl)-2-pyrrolidinyl)-1H-imidazol-4-yl)-1,1′-bi(cyclohexyl)-4-yl)-1H-imidazol-2-yl)-1-pyrrolidinyl)-1-(methoxymethyl)-2-oxoethyl)carbamate], the EC50 was 17.1 nM.

Still in this assay, the particulars now being: Hepatitis C virus; HCV 1b genotype replicon; read-out: 1b EC50 Range.
`COC(=O)N[C@H](C(=O)N1CCC[C@H]1c1nc(C2=CCC(c3ccc(-c4c[nH]c([C@@H]5CCCN5C(=O)[C@@H](NC(=O)OC)C(C)C)n4)cc3)CC2)c[nH]1)C(C)C` (mixture of isomers) [QC-9, methyl ((1S)-1-(((2S)-2-(4-(4-(4-(2-((2S)-1-((2S)-2-((methoxycarbonyl)amino)-3-methylbutanoyl)-2-pyrrolidinyl)-1H-imidazol-4-yl)phenyl)-1-cyclohexen-1-yl)-1H-imidazol-2-yl)-1-pyrrolidinyl)carbonyl)-2-methylpropyl)carbamate]: the pEC50 is 8.34 to 8.70.

On to `COC(=O)N[C@H](C(=O)N1CCC[C@H]1c1nc(-c2ccc(C3CCC(c4c[nH]c([C@@H]5CCCN5C(=O)[C@@H](NC(=O)OC)C(C)C)n4)CC3)cc2)c[nH]1)C(C)C` (single isomer, unassigned) [QC-16], for which the pEC50 was 8.34 to 8.70.

Consider `COC(=O)N[C@H](C(=O)N1CCC[C@H]1c1nc(-c2ccc(C34CCC(c5c[nH]c([C@@H]6CCCN6C(=O)[C@@H](NC(=O)OC)C(C)C)n5)(CC3)CC4)cc2)c[nH]1)C(C)C` [Example M-1, methyl ((1S)-1-(((2S)-2-(4-(4-(4-(2-((2S)-1-((2S)-2-((methoxycarbonyl)amino)-3-methylbutanoyl)-2-pyrrolidinyl)-1H-imidazol-4-yl)phenyl)bicyclo[2.2.2]oct-1-yl)-1H-imidazol-2-yl)-1-pyrrolidinyl)carbonyl)-2-methylpropyl)carbamate], for which the pEC50 was 8.34 to 8.70.

As to `COC(=O)N[C@@H](C)C(=O)N1CCC[C@H]1c1nc(-c2ccc(C34CCC(c5c[nH]c([C@@H]6CCCN6C(=O)[C@H](C)NC(=O)OC)n5)(CC3)CC4)cc2)c[nH]1` [Example M-2, methyl ((1S)-2-((2S)-2-(4-(4-(4-(2-((2S)-1-(N-(methoxycarbonyl)-L-alanyl)-2-pyrrolidinyl)-1H-imidazol-4-yl)bicyclo[2.2.2]oct-1-yl)phenyl)-1H-imidazol-2-yl)-1-pyrrolidinyl)-1-methyl-2-oxoethyl)carbamate], the negative-log EC50 (pEC50) was 7.00 to 8.34.

Turning to `COC(=O)N[C@@H](C(=O)N1CCC[C@H]1c1nc(-c2ccc(C34CCC(c5c[nH]c([C@@H]6CCCN6C(=O)[C@H](NC(=O)OC)c6ccccc6)n5)(CC3)CC4)cc2)c[nH]1)c1ccccc1` [Example M-3, methyl ((1R)-2-((2S)-2-(4-(4-(4-(2-((2S)-1-((2R)-2-((methoxycarbonyl)amino)-2-phenylacetyl)-2-pyrrolidinyl)-1H-imidazol-4-yl)bicyclo[2.2.2]oct-1-yl)phenyl)-1H-imidazol-2-yl)-1-pyrrolidinyl)-2-oxo-1-phenylethyl)carbamate], the pEC50 was 8.34 to 8.70.

As to `COC(=O)N[C@H](C(=O)N1CCC[C@H]1c1nc(-c2ccc(C34CCC(c5coc([C@@H]6CCCN6C(=O)[C@@H](NC(=O)OC)C(C)C)n5)(CC3)CC4)cc2)c[nH]1)C(C)C` [Example M-4, methyl ((1S)-1-(((2S)-2-(4-(4-(4-(2-((2S)-1-((2S)-2-((methoxycarbonyl)amino)-3-methylbutanoyl)-2-pyrrolidinyl)-1H-imidazol-4-yl)phenyl)bicyclo[2.2.2]oct-1-yl)-1,3-oxazol-2-yl)-1-pyrrolidinyl)carbonyl)-2-methylpropyl)carbamate], the pEC50 was 5.00 to 6.00.

Consider `COC(=O)N[C@H](C(=O)N1[C@@H]2C[C@@H]2C[C@H]1c1ncc(-c2ccc(C34CCC(c5cnc([C@@H]6C[C@H]7C[C@H]7N6C(=O)[C@@H](NC(=O)OC)C(C)C)[nH]5)(CC3)CC4)cc2)[nH]1)C(C)C` [Example M-5, methyl ((1S)-1-(((1R,3S,5R)-3-(5-(4-(4-(2-((1R,3S,5R)-2-((2S)-2-((methoxycarbonyl)amino)-3-methylbutanoyl)-2-azabicyclo[3.1.0]hex-3-yl)-1H-imidazol-5-yl)bicyclo[2.2.2]oct-1-yl)phenyl)-1H-imidazol-2-yl)-2-azabicyclo[3.1.0]hex-2-yl)carbonyl)-2-methylpropyl)carbamate], for which the negative-log EC50 (pEC50) was 8.34 to 8.70.

As for `CC[C@H](NC(=O)OC)C(=O)N1[C@@H]2C[C@@H]2C[C@H]1c1ncc(-c2ccc(C34CCC(c5cnc([C@@H]6C[C@H]7C[C@H]7N6C(=O)[C@H](CC)NC(=O)OC)[nH]5)(CC3)CC4)cc2)[nH]1` [Example M-6, methyl ((1S)-1-(((1R,3S,5R)-3-(5-(4-(4-(2-((1R,3S,5R)-2-((2S)-2-((methoxycarbonyl)amino)butanoyl)-2-azabicyclo[3.1.0]hex-3-yl)-1H-imidazol-5-yl)bicyclo[2.2.2]oct-1-yl)phenyl)-1H-imidazol-2-yl)-2-azabicyclo[3.1.0]hex-2-yl)carbonyl)propyl)carbamate], the negative-log EC50 (pEC50) is 8.34 to 8.70.

As to `COC(=O)N[C@@H](C(=O)N1[C@@H]2C[C@@H]2C[C@H]1c1ncc(-c2ccc(C34CCC(c5cnc([C@@H]6C[C@H]7C[C@H]7N6C(=O)[C@H](NC(=O)OC)c6ccccc6)[nH]5)(CC3)CC4)cc2)[nH]1)c1ccccc1` [Example M-7, methyl ((1R)-2-((1R,3S,5R)-3-(5-(4-(4-(2-((1R,3S,5R)-2-((2R)-2-((methoxycarbonyl)amino)-2-phenylacetyl)-2-azabicyclo[3.1.0]hex-3-yl)-1H-imidazol-5-yl)bicyclo[2.2.2]oct-1-yl)phenyl)-1H-imidazol-2-yl)-2-azabicyclo[3.1.0]hex-2-yl)-2-oxo-1-phenylethyl)carbamate], the pEC50 was 8.34 to 8.70.

Turning to `COC(=O)N[C@H](C(=O)N1[C@@H]2C[C@@H]2C[C@H]1c1nc(Cl)c(-c2ccc(C34CCC(c5[nH]c([C@@H]6C[C@H]7C[C@H]7N6C(=O)[C@@H](NC(=O)OC)C(C)C)nc5Cl)(CC3)CC4)cc2)[nH]1)C(C)C` [Example M-8, methyl ((1S)-1-(((1R,3S,5R)-3-(4-chloro-5-(4-(4-(4-chloro-2-((1R,3S,5R)-2-((2S)-2-((methoxycarbonyl)amino)-3-methylbutanoyl)-2-azabicyclo[3.1.0]hex-3-yl)-1H-imidazol-5-yl)bicyclo[2.2.2]oct-1-yl)phenyl)-1H-imidazol-2-yl)-2-azabicyclo[3.1.0]hex-2-yl)carbonyl)-2-methylpropyl)carbamate], the pEC50 was 8.34 to 8.70.

Take `COC(=O)N[C@@H](C)C(=O)N1CCC[C@H]1c1nc(C2CCC(C3CCC(c4c[nH]c([C@@H]5CCCN5C(=O)[C@H](C)NC(=O)OC)n4)CC3)CC2)c[nH]1` (stereo partly drawn) [QC-6, methyl ((1S)-2-((2S)-2-(4-(4′-(2-((2S)-1-(N-(methoxycarbonyl)-L-alanyl)-2-pyrrolidinyl)-1H-imidazol-4-yl)-1,1′-bi(cyclohexyl)-4-yl)-1H-imidazol-2-yl)-1-pyrrolidinyl)-1-methyl-2-oxoethyl)carbamate]: the pEC50 is 6.00 to 7.00.

Take `COC[C@H](NC(=O)OC)C(=O)N1CCC[C@H]1c1nc(C2CCC(C3CCC(c4c[nH]c([C@@H]5CCCN5C(=O)[C@H](COC)NC(=O)OC)n4)CC3)CC2)c[nH]1` (stereo partly drawn) [QC-7, methyl ((1S)-2-((2S)-2-(4-(4′-(2-((2S)-1-(N-(methoxycarbonyl)-O-methyl-L-seryl)-2-pyrrolidinyl)-1H-imidazol-4-yl)-1,1′-bi(cyclohexyl)-4-yl)-1H-imidazol-2-yl)-1-pyrrolidinyl)-1-(methoxymethyl)-2-oxoethyl)carbamate]: the pEC50 is 5.00 to 6.00.
